Measurements from patent US20100273876A1, “ANTIBACTERIAL FORMULATION COMPRISING A DIALKYL SULPHOSUCCINATE AND A CARBANILIDE ANTIBACTERIAL AGENT” (priority 2007, published 2010).

Columns and labels:
P. acnes PRP-002 = experiment: Agar dilution MIC assay; format: cell-based, Propionibacterium acnes; conditions: P. acnes PRP-002 (Tet/MLS)
Experimental: (§1) The propionibacteria were cultured and maintained on Wilkins-Chalgren Anaerobe Medium (agar and broth) at pH 6.0; all cultures were incubated anaerobically at 37° C. for 72 hours.
(§2) This is a standard international method for quantitatively assessing the antimicrobial activity of a compound in a solid medium. The test compound was prepared to 40× the highest concentration required (eg, 10 mg/ml for a final concentration of 250 μg/ml) and a series of doubling dilutions were performed in a suitable solvent. A set amount of these antimicrobial stock solutions was then added to molten agar medium (ca. 55° C.), mixed thoroughly, poured into sterile Petri dishes and allowed to cool/set.
(§3) A Multipoint™ Inoculator (AQS Manufacturing Ltd, UK) was used to inoculate the plates by spotting the inocula onto the surface of the agar, delivering approximately 1 to 2 μl per spot (yielding 10^5 CFU(colony forming units) per spot).
(§4) The plate(s) were then incubated under the conditions described above, following which they were examined visually for signs of bacterial growth. The MIC value was ascertained when there was a marked reduction in, or total loss of, growth on the test plate at the lowest concentration as compared to that of the growth on the control plate.
(§5) The assays were conducted in duplicate and included a positive control (culture medium, diluting solvent and inoculum).

P. acnes PRP-003 = experiment: Agar dilution MIC assay; format: cell-based, Propionibacterium acnes; conditions: P. acnes PRP-003 (Tet)
Experimental: as §1, §2, §3, §4, §5

P. acnes PRP-004 = experiment: Agar dilution MIC assay; format: cell-based, Propionibacterium acnes; conditions: P. acnes PRP-004 (Tet)
Experimental: as §1, §2, §3, §4, §5

P. acnes PRP-008 = experiment: Agar dilution MIC assay; format: cell-based, Propionibacterium acnes; conditions: P. acnes PRP-008 (Clin)
Experimental: as §1, §2, §3, §4, §5

P. acnes PRP-010 = experiment: Agar dilution MIC assay; format: cell-based, Propionibacterium acnes; conditions: P. acnes PRP-010 (MLSK)
Experimental: as §1, §2, §3, §4, §5

P. acnes PRP-017 = experiment: Agar dilution MIC assay; format: cell-based, Propionibacterium acnes; conditions: P. acnes PRP-017 (MLS)
Experimental: as §1, §2, §3, §4, §5

P. acnes PRP-023 = experiment: Agar dilution MIC assay; format: cell-based, Propionibacterium acnes; conditions: P. acnes PRP-023 (MLSK)
Experimental: as §1, §2, §3, §4, §5

P. acnes PRP-026 = experiment: Agar dilution MIC assay; format: cell-based, Propionibacterium acnes; conditions: P. acnes PRP-026 (MLS)
Experimental: as §1, §2, §3, §4, §5

P. acnes PRP-039 = experiment: Agar dilution MIC assay; format: cell-based, Propionibacterium acnes; conditions: P. acnes PRP-039 (Tet/MLS)
Experimental: as §1, §2, §3, §4, §5

P. acnes PRP-046 = experiment: Agar dilution MIC assay; format: cell-based, Propionibacterium acnes; conditions: P. acnes PRP-046 (resistance None)
Experimental: as §1, §2, §3, §4, §5

P. acnes PRP-053 = experiment: Agar dilution MIC assay; format: cell-based, Propionibacterium acnes; conditions: P. acnes PRP-053 (Tet/MLS)
Experimental: as §1, §2, §3, §4, §5

P. acnes PRP-059 = experiment: Agar dilution MIC assay; format: cell-based, Propionibacterium acnes; conditions: P. acnes PRP-059 (MLS)
Experimental: as §1, §2, §3, §4, §5

P. acnes PRP-068 = experiment: Agar dilution MIC assay; format: cell-based, Propionibacterium acnes; conditions: P. acnes PRP-068 (Ery)
Experimental: as §1, §2, §3, §4, §5

P. acnes PRP-101 = experiment: Agar dilution MIC assay; format: cell-based, Propionibacterium acnes; conditions: P. acnes PRP-101 (Tet/MLS)
Experimental: as §1, §2, §3, §4, §5

P. acnes PRP-102 = experiment: Agar dilution MIC assay; format: cell-based, Propionibacterium acnes; conditions: P. acnes PRP-102 (Tet/MLS)
Experimental: as §1, §2, §3, §4, §5

P. granulosum NCTC 11865 = experiment: Agar dilution MIC assay; format: cell-based, Propionibacterium granulosum; conditions: P. granulosum NCTC 11865 (resistance None)
Experimental: as §1, §2, §3, §4, §5

P. granulosum PRP-005 = experiment: Agar dilution MIC assay; format: cell-based, Propionibacterium granulosum; conditions: P. granulosum PRP-005 (MLSK)
Experimental: as §1, §2, §3, §4, §5

P. granulosum PRP-006 = experiment: Agar dilution MIC assay; format: cell-based, Propionibacterium granulosum; conditions: P. granulosum PRP-006 (MLS)
Experimental: as §1, §2, §3, §4, §5

P. granulosum PRP-019 = experiment: Agar dilution MIC assay; format: cell-based, Propionibacterium granulosum; conditions: P. granulosum PRP-019 (MLSK)
Experimental: as §1, §2, §3, §4, §5

P. granulosum PRP-021 = experiment: Agar dilution MIC assay; format: cell-based, Propionibacterium granulosum; conditions: P. granulosum PRP-021 (MLS)
Experimental: as §1, §2, §3, §4, §5

P. granulosum PRP-043 = experiment: Agar dilution MIC assay; format: cell-based, Propionibacterium granulosum; conditions: P. granulosum PRP-043 (MLS)
Experimental: as §1, §2, §3, §4, §5

P. granulosum PRP-044 = experiment: Agar dilution MIC assay; format: cell-based, Propionibacterium granulosum; conditions: P. granulosum PRP-044 (MLS)
Experimental: as §1, §2, §3, §4, §5

P. granulosum PRP-055 = experiment: Agar dilution MIC assay; format: cell-based, Propionibacterium granulosum; conditions: P. granulosum PRP-055 (resistance None)
Experimental: as §1, §2, §3, §4, §5

Strep. mutans ATCC 25175 = experiment: MIC assay, liquid medium; format: cell-based, Streptococcus mutans
Experimental: The S. mutans was cultured and maintained on Wilkins-Chalgren Anaerobe Medium (agar and broth) at pH 7.0 supplemented with 1 g/L glucose; all cultures were incubated at 37° C. for 48 h in an atmosphere containing 5% CO2.
This is a standard international method for quantitatively assessing the antimicrobial activity of a compound in a liquid medium. The method used a sterile 96-well microtitre plate, capable of holding about 200 μl of liquid per well. The wells contained liquid culture medium and ranges of decreasing concentrations of the relevant test compound in doubling dilutions (eg, 1000, 500, 250, 125 . . . μg/ml, etc. down to 0.49 μg/ml). The culture media were as described above.
The wells were inoculated with a liquid suspension of freshly grown micro-organism and incubated under the conditions described above. After incubation, the microtitre plate was examined visually (with the aid of a light box) for cloudiness in each well, which would indicate microbial growth. The MIC value was recorded as the lowest concentration of test compound required to inhibit microbial growth, ie, the lowest concentration for which the liquid in the well remained clear.
The assays included both negative (culture medium with no micro-organisms) and positive (culture medium plus diluting solvent plus micro-organism) controls.

dioctyl sodium sulphosuccinate [DOSS]
MIC (P. acnes PRP-002): 15.6 µg/mL
MIC (P. acnes PRP-003): 15.6 µg/mL
MIC (P. acnes PRP-004): 15.6 µg/mL
MIC (P. acnes PRP-008): 15.6 µg/mL
MIC (P. acnes PRP-010): 15.6 µg/mL
MIC (P. acnes PRP-017): 15.6 µg/mL
MIC (P. acnes PRP-023): 15.6 µg/mL
MIC (P. acnes PRP-026): 15.6 µg/mL
MIC (P. acnes PRP-039): 15.6 µg/mL
MIC (P. acnes PRP-046): 15.6 µg/mL
MIC (P. acnes PRP-053): 15.6 µg/mL
MIC (P. acnes PRP-059): 15.6 µg/mL
MIC (P. acnes PRP-068): 15.6 µg/mL
MIC (P. acnes PRP-101): 15.6 µg/mL
MIC (P. acnes PRP-102): 31.25 µg/mL
MIC (P. granulosum NCTC 11865): 31.25 µg/mL
MIC (P. granulosum PRP-005): 15.6 µg/mL
MIC (P. granulosum PRP-006): 31.25 µg/mL
MIC (P. granulosum PRP-019): 15.6 µg/mL
MIC (P. granulosum PRP-021): 31.25 µg/mL
MIC (P. granulosum PRP-043): 31.25 µg/mL
MIC (P. granulosum PRP-044): 31.25 µg/mL
MIC (P. granulosum PRP-055): 31.25 µg/mL
MIC (Strep. mutans ATCC 25175): 15.6 µg/mL
